Experimental data published in PubChem BioAssay AID463199 (Broad Institute, 2010).
Activity calls are given as the source filed them.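 How the source made its calls: active means AC50, the dose giving half-maximal effect, exceeds a fixed cutoff for a compound that rescues yeast growth under heat; inactive means the rest, inconclusive results apart.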

What follows are molecules tested on S. cerevisiae Burl-1 ts mutant growth, BacTiter-Glo, 38.5C 24 h (assay: growth induction of Burl-1 ts yeast mutant, dose response, counter-screen for SUMOylation pathway inhibitor project, whole organism, S. cerevisiae, luminescence (AID 463199)).
For `CCCn1c(=O)c2ccccc2n2c(SCC(=O)N3CCc4ccccc4C3)nnc12`, the AC50 was > 42 µM (inactive).
With `c1ccc(-c2csc(NC3CCCCC3)n2)cc1` the AC50 was > 42 µM (inactive).
In the case of `N#Cc1cccc(NC(=O)CSc2n[nH]c(=O)[nH]c2=O)c1`, the AC50 is reported as > 42 µM (inactive).
In the case of `CN1c2ccccc2-c2nc3ccccc3n2C1c1ccncc1` (configuration not stated), the AC50 is reported as > 42 µM (inactive).
For `CCS(=O)(=O)N1CCC(C(=O)N2CCc3ccccc3C2)CC1`, the AC50 was > 42 µM (inactive).
In the case of `O=C(OC1CCOC1=O)c1cccc(S(=O)(=O)Nc2ccc(F)cc2)c1` (configuration not stated), the AC50 is reported as > 42 µM (inactive).
With `CC(=O)C(C(c1ccccc1)c1c[nH]c2ccccc12)[N+](=O)[O-]` (configuration not stated) the AC50 was > 42 µM (inactive).
For `Cc1ccc(NC(=O)CN(C)C(=O)c2cccc(Br)c2)cc1`, the AC50 was > 42 µM (inactive).
With `O=C(N/N=C/c1cccs1)c1cncc(Br)c1` the AC50 was > 42 µM (inactive).
`COCCN(C(=O)C1CC1)c1nnc(-c2ccc(C)cc2)s1` was tested, and the AC50 was > 42 µM (inactive).
In the case of `CCCCOc1ccc(C(O)C(CN2CCOCC2)c2ccccc2)cc1` (configuration not stated), the AC50 is reported as > 42 µM (inactive).
With `CN(C(=S)NC1=CCS(=O)(=O)C1)C1CCCCC1` the AC50 was > 42 µM (inactive).
In the case of `C/C=C/C(=O)N1c2ccc(C)cc2C(C)=CC1(C)C`, the AC50 is reported as > 42 µM (inactive).
`CN(C(=O)CSc1nnc(-c2cccc(F)c2)n1N)C1CCS(=O)(=O)C1` (configuration not stated) was tested, and the AC50 was > 42 µM (inactive).
For `CC(NC(=O)c1cccs1)c1ccc(Br)cc1` (configuration not stated), the AC50 was > 42 µM (inactive).
With `CC(NC(=O)c1ccc(Cl)cc1)C(=O)N1CCCCC1` (configuration not stated) the AC50 was > 42 µM (inactive).
`O=C(CSc1nc2ccc(Nc3nc(N4CCOCC4)nc(N4CCOCC4)n3)cc2s1)N1CCOCC1` was tested, and the AC50 was > 42 µM (inactive).
In the case of `CC1CCCC(C)N1/N=C/c1cc(Br)cc(Br)c1O` (configuration not stated), the AC50 is reported as > 42 µM (inactive).
For `CCOc1ccc(C(=O)Nc2ccc(C(F)(F)F)n(C)c2=O)cc1`, the AC50 was > 42 µM (inactive).
For `COc1ccc2c(c1)OC[C@H]1[C@H]2N2C(=O)c3ccccc3NC(=O)[C@@]2(C)[C@H]1c1ccccc1`, the AC50 was > 42 µM (inactive).
For `O=C(O)c1ccc(S(=O)(=O)N2CCN(c3ccccn3)CC2)cc1`, the AC50 was > 42 µM (inactive).
For `COc1ccc(-c2cc(C(=O)Nc3cc(C)ccc3O)no2)cc1`, the AC50 was > 42 µM (inactive).
In the case of `Cc1cc(C)c2c(Cn3ccnc3)cc(=O)oc2c1`, the AC50 is reported as > 42 µM (inactive).
With `CN1CC2(C)OC(=O)C(Cl)=C2CC1c1ccccc1` (configuration not stated) the AC50 was > 42 µM (inactive).
In the case of `CCOC(=O)c1c(C)[nH]c(C(=O)COC(=O)c2ccncc2)c1C`, the AC50 is reported as > 42 µM (inactive).
For `NS(=O)(=O)c1ccc(CCNC(=O)c2ccc([N+](=O)[O-])s2)cc1`, the AC50 was > 42 µM (inactive).
`O=C(O)c1cc(Oc2ccc(C(F)(F)F)cc2Cl)ccc1[N+](=O)[O-]` was tested, and the AC50 was > 42 µM (inactive).
`Cc1ccc(CSCCNC(=O)c2ccc(NS(C)(=O)=O)cc2)cc1` was tested, and the AC50 was > 42 µM (inactive).
With `COc1ccc(N2CC(C(=O)N3CCc4ccccc43)CC2=O)cc1` (configuration not stated) the AC50 was > 42 µM (inactive).
With `COc1cccc(-c2nn(-c3ccccc3)cc2/C=C(/NC(=O)c2ccccc2)C(=O)O)c1` the AC50 was > 42 µM (inactive).
`CN1CCCC(n2nc(Cc3ccc(Cl)cc3)c3ccccc3c2=O)CC1` (configuration not stated) was tested, and the AC50 was > 42 µM (inactive).
`COc1ccc(/C=C/C(=O)N2CCC(C(N)=O)CC2)cc1S(=O)(=O)N1CCOCC1` was tested, and the AC50 was > 42 µM (inactive).
In the case of `N#C/C(=C\c1cc([N+](=O)[O-])c(N2CCOCC2)cc1N1CCOCC1)c1nc2ccccc2[nH]1`, the AC50 is reported as > 42 µM (inactive).
With `CC1CC(c2ccccc2)NS(=O)(=O)O1` (configuration not stated) the AC50 was > 42 µM (inactive).
`N#CCCN(C(=O)COC(=O)c1ccc(S(=O)(=O)Nc2ccccc2)cc1)c1ccccc1` was tested, and the AC50 was > 42 µM (inactive).
In the case of `COc1ccc(C(=O)OCC(=O)c2ccc(C)c(S(=O)(=O)N3CCOCC3)c2)cc1OC`, the AC50 is reported as > 42 µM (inactive).
With `CN(Cc1ccccc1)c1ccc(S(=O)(=O)N2CCC(C(=O)O)CC2)cc1[N+](=O)[O-]` the AC50 was > 42 µM (inactive).
For `CC[C@@H]1C/C=C\Cc2ccccc2[C@H](C(=O)C[C@@H](O)CC(C)=O)OC1=O`, the AC50 was > 42 µM (inactive).
`COc1ccc(-c2nnc(-c3cc4c(ccc5ccccc54)oc3=O)o2)cc1` was tested, and the AC50 was > 42 µM (inactive).
`NC(=O)c1nsc(C(=O)N(Cc2ccc(F)cc2)C(C(=O)NC2CCCC2)c2ccco2)c1N` (configuration not stated) was tested, and the AC50 was > 42 µM (inactive).
With `CN1C2CCC1CC(OC(=O)c1ccc([N+](=O)[O-])cc1)C2` (configuration not stated) the AC50 was > 42 µM (inactive).
For `CC(=O)Nc1ccc(S(=O)(=O)Nc2ccc(S(=O)(=O)Nc3ncccn3)cc2)cc1`, the AC50 was > 42 µM (inactive).
In the case of `C=CCN1c2ccccc2[C@]23C[C@@H](C(=O)OC)N=C2NC(C(=O)OC)=C(C(=O)OC)[C@H]13`, the AC50 is reported as > 42 µM (inactive).
`Cc1nc(NCCN2CCOCC2)c2nnn(Cc3c(F)cccc3Cl)c2n1` was tested, and the AC50 was > 42 µM (inactive).
In the case of `COc1ccc(OCCC(=O)c2ccc(OC)cc2)cc1`, the AC50 is reported as > 42 µM (inactive).
With `O=S(=O)(NCCN1CCCC1)c1cccc2cccnc12` the AC50 was > 42 µM (inactive).
With `CCOc1c(P(=S)(N(C)C)N(C)C)c(C)nn1-c1ccccc1` the AC50 was > 42 µM (inactive).
With `O=S(=O)(NCc1ccc(Cl)cc1)c1cnc[nH]1` the AC50 was > 42 µM (inactive).
For `Cc1cc(C#Cc2c(-c3ccccc3)n(C)c3ccccc23)ccc1F`, the AC50 was > 42 µM (inactive).
With `COc1ccccc1/C=C/C(=O)N1CCc2cc(OC)c(OC)cc2C1C` (configuration not stated) the AC50 was > 42 µM (inactive).
For `C/C(CC(=O)Nc1cccc(Cl)c1Cl)=N\NC(=O)c1ccccc1C`, the AC50 was > 42 µM (inactive).
In the case of `O=C(O)CC(NC(=O)c1ccc2c(c1)OCO2)c1cccc([N+](=O)[O-])c1` (configuration not stated), the AC50 is reported as > 42 µM (inactive).
For `CC(C)Sc1ccc(C(=O)Nc2ccc(F)cc2F)cn1`, the AC50 was > 42 µM (inactive).
`N/C(=N\NC(=O)c1sccc1OCc1ccc(Cl)cc1Cl)c1ccccn1` was tested, and the AC50 was > 42 µM (inactive).
With `CCCCC(=O)Nc1nnc(/C=C/c2ccc(OC)cc2)s1` the AC50 was > 42 µM (inactive).
With `COCCn1c(-c2ccc(Cl)cc2)cnc1SCC(=O)NCCc1ccc(OC)c(OC)c1` the AC50 was > 42 µM (inactive).
For `CC(C)c1ccc(-c2cc(C(=O)N3CCOCC3)c3cc(Br)ccc3n2)cc1`, the AC50 was > 42 µM (inactive).
`CCn1c(SCC(=O)Nc2ccc(OCc3ccccc3)cc2)nnc1-c1ccco1` was tested, and the AC50 was > 42 µM (inactive).
`N#CC1=C(N)Nc2ncnn2C1c1ccc([N+](=O)[O-])cc1` (configuration not stated) was tested, and the AC50 was > 42 µM (inactive).
In the case of `Cc1sc(NC(=O)c2ccc(F)cc2)c(CN2CCCCCC2)c1C`, the AC50 is reported as > 42 µM (inactive).
For `Cc1nc2nc[nH]n2c(=O)c1NS(=O)(=O)c1ccc([N+](=O)[O-])cc1`, the AC50 was > 42 µM (inactive).
For `CCS(=O)(=O)N1CCCC(C(=O)NCc2cccnc2)C1` (configuration not stated), the AC50 was > 42 µM (inactive).
For `COc1ccc(C(=O)N(CCc2ccccc2)Cc2ccccc2)c(OC)n1`, the AC50 was > 42 µM (inactive).
In the case of `Cc1cc(C)cc(N2C(=O)CC(Sc3ncn[nH]3)C2=O)c1` (configuration not stated), the AC50 is reported as > 42 µM (inactive).
For `CCOC(=O)NNC(=O)CCn1c2c(c3ccccc31)CCCC2`, the AC50 was > 42 µM (inactive).
For `CC(=O)c1cccc(N2C(=NC(=O)C3CCCCC3)SC3CS(=O)(=O)CC32)c1` (configuration not stated), the AC50 was > 42 µM (inactive).
`CCCCCC(=O)NNC1=NCC(Cc2cccc(Cl)c2)S1` (configuration not stated) was tested, and the AC50 was > 42 µM (inactive).
In the case of `CCOC(=O)N1CCN(C(=O)c2ccc3ccccc3c2)CC1`, the AC50 is reported as > 42 µM (inactive).
For `Cc1ccc(CC(=O)O/N=C(\N)c2cccc([N+](=O)[O-])c2)cc1`, the AC50 was > 42 µM (inactive).
In the case of `O=C1CN(C(=O)c2ccccc2F)C(c2ccccc2)c2cc(Cl)ccc2N1` (configuration not stated), the AC50 is reported as > 42 µM (inactive).
With `Cc1c(N=Cc2cc(Br)cc(Br)c2O)cccc1C(=O)O` the AC50 was > 42 µM (inactive).
For `CN(c1ccccc1C(=O)N1CCN(Cc2ccc3c(c2)OCO3)CC1)S(C)(=O)=O`, the AC50 was > 42 µM (inactive).
`COC(=O)c1ccc(CSc2nnnn2-c2ccccc2)o1` was tested, and the AC50 was > 42 µM (inactive).
With `CC(=O)N(C(C)=O)C1=C(C#N)C2(CCCCC2)Cc2ccccc21` the AC50 was > 42 µM (inactive).
In the case of `O=C(NCCc1c[nH]c2ccccc12)c1cc(S(=O)(=O)N2CCCCC2)ccc1N1CCOCC1`, the AC50 is reported as > 42 µM (inactive).
For `CNC(=O)c1ccccc1S(=O)c1ccccc1COC(C)=O` (configuration not stated), the AC50 was > 42 µM (inactive).
With `C[C@@]12C(=O)Nc3ccc(F)cc3C(=O)N1[C@H]1c3ccccc3OC[C@@H]1[C@@H]2c1ccccc1` the AC50 was > 42 µM (inactive).
In the case of `COC(=O)C1(Cc2ccc(O)cc2)OC(=O)C(O)=C1c1ccc(O)cc1` (configuration not stated), the AC50 is reported as > 42 µM (inactive).
In the case of `COc1cc(COc2ccc3c(C)c(CC(=O)O)c(=O)oc3c2C)cc(OC)c1OC`, the AC50 is reported as > 42 µM (inactive).
For `CCOC(=O)CN1NC2(CCC(C(C)(C)C)CC2)NC1=S` (configuration not stated), the AC50 was > 42 µM (inactive).
`COc1ccc(CCNC(=O)Cn2nnc(-c3ccc(N4CCOCC4)cc3)n2)cc1OC` was tested, and the AC50 was > 42 µM (inactive).
`O=C(Nc1ccc(F)cc1)c1ccc(CSc2ccccc2)o1` was tested, and the AC50 was > 42 µM (inactive).
In the case of `Cc1ccc(-c2csc3ncn(CC(=O)N4CCOCC4)c(=O)c23)cc1`, the AC50 is reported as > 42 µM (inactive).
In the case of `COc1cccc(-c2ocnc2C(=O)Nc2ccc3c(c2)CCC3)c1`, the AC50 is reported as > 42 µM (inactive).
With `CC(=O)N/C(=C\c1ccccc1)C(=O)OCC(=O)c1ccccc1` the AC50 was > 42 µM (inactive).
`COc1cc(C(=O)NCCC2=CCCCC2)ccc1OC1CCN(C(C)=O)CC1` was tested, and the AC50 was > 42 µM (inactive).
`C=CCOc1ccccc1CN1CCCC(CCC(=O)N(C)CCc2ccccn2)C1` (configuration not stated) was tested, and the AC50 was > 21 µM (inactive).
With `COc1ccc(S(=O)(=O)N2CCc3cc4c(cc3C2C)OCCCO4)cc1` (configuration not stated) the AC50 was > 42 µM (inactive).
In the case of `O=C(COc1ccccc1)Nc1cccc(-c2nnc(-c3ccccc3)o2)c1`, the AC50 is reported as > 42 µM (inactive).
For `CCC(C)[C@H]1COCCS(=O)(=O)N1Cc1ccc(C)cc1` (some centres not stated), the AC50 was > 42 µM (inactive).
For `O=C(CCC(F)(F)F)N1CCCC(CO)(CCc2ccccc2)C1` (configuration not stated), the AC50 was > 42 µM (inactive).
For `Cc1cccn2c(=O)c3cc(C(=O)NCCc4ccccc4)sc3nc12`, the AC50 was > 42 µM (inactive).
In the case of `Cc1nc2ccc(NC(=O)c3ccc(S(=O)(=O)N4CCOCC4)cc3)cc2s1`, the AC50 is reported as > 42 µM (inactive).
`CC1=C(C(=O)N2CCOCC2)C(c2ccc(O)cc2)NC(=S)N1` (configuration not stated) was tested, and the AC50 was > 42 µM (inactive).
In the case of `Cc1ccc(S(=O)(=O)Nc2n[nH]nc2C(=O)NC2CCCCC2)cc1`, the AC50 is reported as > 42 µM (inactive).
In the case of `Cc1ccc2nc(N/N=C/c3ccccc3F)nc(-c3ccccc3)c2c1`, the AC50 is reported as > 42 µM (inactive).
For `CNC(=O)NNC(=O)c1csc(-c2ccc(C(F)(F)F)cc2Cl)n1`, the AC50 was > 42 µM (inactive).
